One may read the melting point as the temperature of the solid-liquid transition. For orientation: mortality means the share of the test organisms that died.

Data on 35 compounds can be found in US20130131116A1, “PEST CONTROL COMPOSITION” (SUMITOMO CHEMICAL COMPANY, LIMITED, priority 2010, published 2013).

Data set [1] concerns Haemaphysalis longicornis. Put plainly: Test Example 3: Insecticidal Test on Haemaphysalis longicornis By Treating Glass Surface. The conditions noted are these: for Mortality Rate (%): after 2 days. In kind it is in vivo. The method, then:
Acetone solutions were each prepared for the present hydrazide compounds and the present ester compounds. To inner walls of a glass screw tube and lid (NO. 5, manufactured by Maruemu Corporation), 0.2 mL of the acetone solution was uniformly applied. […] The lid is closed tightly, and the number of dead ticks is examined after 2 days.

Where [2] appears, read: Haemaphysalis longicornis, 48 h, read-out: Mortality Rate (%).

Compound `CC(C)(C)OC(=O)N(NC(=O)C1CC1)c1cc(C2=NOC(c3cc(Cl)cc(Cl)c3)(C(F)(F)F)C2)ccc1Cl` (stereo not drawn) displayed a melting point of 180 °C. Compound `O=C(NNc1cc(C2=NOC(c3cc(Cl)cc(Cl)c3)(C(F)(F)F)C2)ccc1Cl)c1ccccc1` (stereo not drawn) yielded a melting point of 105 °C. In the case of `CC(=O)NNc1cc(C2=NOC(c3cc(Cl)cc(Cl)c3)(C(F)(F)F)C2)ccc1Cl` (stereo not drawn), the melting point came to 94 °C.

As for `CCC(=O)NNc1cc(C2=NOC(c3cc(Cl)cc(Cl)c3)(C(F)(F)F)C2)ccc1Cl` (stereo not drawn), the melting point was 92 °C.

For the compound `O=C(NNc1cc(C2=NOC(c3cc(Cl)cc(Cl)c3)(C(F)(F)F)C2)ccc1Cl)C(F)(F)F` (stereo not drawn), the melting point was 64 °C. Still for that read-out and setting: under `O=C(NNc1cc(C2=NOC(c3cc(Cl)cc(Cl)c3)(C(F)(F)F)C2)ccc1Cl)c1cccnc1` (stereo not drawn) stands 205 °C. The same measure, in the same setting: as for `O=C(NNc1cc(C2=NOC(c3cc(Cl)cc(Cl)c3)(C(F)(F)F)C2)ccc1Cl)c1ccncc1` (stereo not drawn), the figure is 115 °C; as for `CN(C)C(=O)NNc1cc(C2=NOC(c3cc(Cl)cc(Cl)c3)(C(F)(F)F)C2)ccc1Cl` (stereo not drawn), 212 °C. Same read-out and setting: under `C=CC(=O)NN(C(=O)OC(C)(C)C)c1cc(C2=NOC(c3cc(Cl)cc(Cl)c3)(C(F)(F)F)C2)ccc1Cl` (stereo not drawn) stands 119 °C; under `C=CC(=O)NNc1cc(C2=NOC(c3cc(Cl)cc(Cl)c3)(C(F)(F)F)C2)ccc1Cl` (stereo not drawn), 90 °C; under `CC(=O)NNc1cccc(C2=NOC(c3cc(Cl)cc(Cl)c3)(C(F)(F)F)C2)c1` (stereo not drawn), 100 °C. `CC(=O)N(C)N(C(=O)OC(C)(C)C)c1cccc(C2=NOC(c3cc(Cl)cc(Cl)c3)(C(F)(F)F)C2)c1` (stereo not drawn) had a melting point of 79 °C. As to `O=C(NNc1cc(C2=NOC(c3cc(Cl)cc(Cl)c3)(C(F)(F)F)C2)ccc1Cl)c1ccc([N+](=O)[O-])cc1` (stereo not drawn), the melting point came to 231 °C.

In turn, `CCCC(=O)NNc1cc(C2=NOC(c3cc(Cl)cc(Cl)c3)(C(F)(F)F)C2)ccc1Cl` (stereo not drawn) registered a melting point of 82 °C. Compound `O=C(/C=C/c1ccccc1)NNc1cc(C2=NOC(c3cc(Cl)cc(Cl)c3)(C(F)(F)F)C2)ccc1Cl` (stereo not drawn) gave a melting point of 205 °C. Still for that read-out and setting: as for `COc1ccc(C(=O)NNc2cc(C3=NOC(c4cc(Cl)cc(Cl)c4)(C(F)(F)F)C3)ccc2Cl)cc1` (stereo not drawn), the figure is 131 °C. Same read-out and setting: under `CC(=O)N(NC(=O)C1CC1)c1cc(C2=NOC(c3cc(Cl)cc(Cl)c3)(C(F)(F)F)C2)ccc1Cl` (stereo not drawn) stands 160 °C; under `CC(=O)N(C)Nc1cccc(C2=NOC(c3cc(Cl)cc(Cl)c3)(C(F)(F)F)C2)c1` (stereo not drawn), 88 °C; under `COCC(=O)NN(C(C)=O)c1cc(C2=NOC(c3cc(Cl)cc(Cl)c3)(C(F)(F)F)C2)ccc1Cl` (stereo not drawn), 164 °C. For the compound `CC(=O)NN(C(C)=O)c1cc(C2=NOC(c3cc(Cl)cc(Cl)c3)(C(F)(F)F)C2)ccc1Cl` (stereo not drawn), the melting point is 108 °C.

On to `CC(=O)N(NC(=O)c1ccccc1)c1cc(C2=NOC(c3cc(Cl)cc(Cl)c3)(C(F)(F)F)C2)ccc1Cl` (stereo not drawn), for which the melting point came out at 107 °C. Still for that read-out and setting: as for `CC(=O)NN(C(=O)c1ccccc1)c1cc(C2=NOC(c3cc(Cl)cc(Cl)c3)(C(F)(F)F)C2)ccc1Cl` (stereo not drawn), the figure is 142 °C. `O=C(NN(C(=O)c1ccccc1)c1cc(C2=NOC(c3cc(Cl)cc(Cl)c3)(C(F)(F)F)C2)ccc1Cl)C1CC1` (stereo not drawn) returned a melting point of 172 °C. Still for that read-out and setting: as for `O=C(CCC(F)(F)F)NN(C(=O)c1ccccc1)c1cc(C2=NOC(c3cc(Cl)cc(Cl)c3)(C(F)(F)F)C2)ccc1Cl` (stereo not drawn), the figure is 157 °C. On the same count and under the same terms, as for `O=C(NNc1cc(C2=NOC(c3cc(Cl)cc(Cl)c3)(C(F)(F)F)C2)ccc1Cl)Nc1ccccc1` (stereo not drawn), the figure is 131 °C; as for `O=C(NNc1cc(C2=NOC(c3cc(Cl)cc(Cl)c3)(C(F)(F)F)C2)ccc1Cl)Nc1ccc([N+](=O)[O-])cc1` (stereo not drawn), 201 °C. `FC(F)(F)C1(c2cc(Cl)cc(Cl)c2)CC(c2ccc(Cl)c(NNC(=S)NC3CCCCC3)c2)=NO1` (stereo not drawn) showed a melting point of 126 °C. `FC(F)(F)C1(c2cc(Cl)cc(Cl)c2)CC(c2ccc(Cl)c(NNC(=S)Nc3ccccc3)c2)=NO1` (stereo not drawn) registered a melting point of 213 °C. For `CC(=O)N(C)N(C)c1cccc(C2=NOC(c3cc(Cl)cc(Cl)c3)(C(F)(F)F)C2)c1` (stereo not drawn), the melting point stood at 151 °C.

For `Cc1ccc(C2=NOC(c3cc(Cl)cc(Cl)c3)(C(F)(F)F)C2)cc1NNC(=O)OC(C)C` (stereo not drawn), the melting point was 71 °C. Regarding “3-phenoxybenzyl (1R)-cis/trans-2,2-dimethyl-3-(2-methylprop-1-enyl)cyclopropanecarboxylate [Present ester compound (1), reference compound]”, the “Mortality Rate (%)” value in data set [1] (ester compound alone 4 mg/m^2, glass surface) is given as 15%. As to `CC(C)=C[C@@H]1[C@@H](C(=O)O[C@H](C#N)c2cccc(Oc3ccccc3)c2)C1(C)C` (relative stereo) [Present ester compound (3), (1S)-α-cyano-3-phenoxybenzyl (1R)-trans-2,2-dimethyl-3-(2-methylprop-1-enyl)cyclopropanecarboxylate, reference compound], in data set [1] (ester compound alone 0.8 mg/m^2, glass surface), the “Mortality Rate (%)” value amounted to 10%.

Turning to `CC(C)=CC1(C=C(Cl)Cl)C(C(=O)OCc2cccc(Oc3ccccc3)c2)C1(C)C` (stereo not drawn) [Present ester compound (2), 3-phenoxybenzyl 3-(2,2-dichlorovinyl)-2,2-dimethyl-3-(2-methylprop-1-enyl)cyclopropanecarboxylate, reference compound], in data set [1] (setting [2]), the mortality at 0.8 mg/m2 came out at 13%. As to `O=C(CCC(F)(F)F)NNc1cc(C2=NOC(c3cc(Cl)cc(Cl)c3)(C(F)(F)F)C2)ccc1Cl` (stereo not drawn) [Present hydrazide compound (17), N′-{5-[5-(3,5-dichlorophenyl)-5-trifluoromethyl-4,5-dihydroisoxazol-3-yl]-2-chlorophenyl}-4,4,4-trifluorobutyrohydrazide], in data set [1] (setting [2]), the mortality at 0.032 mg/m2 was determined as 3.3% and the mortality at 0.16 mg/m2 came to 40%. Take `CN(NC(=O)CCC(F)(F)F)c1cc(C2=NOC(c3cc(Cl)cc(Cl)c3)(C(F)(F)F)C2)ccc1Cl` (stereo not drawn) [Present hydrazide compound (31), N′-methyl-N′-{2-chloro-5-[5-(3,5-dichlorophenyl)-5-trifluoromethyl-4,5-dihydroisoxazol-3-yl]phenyl}-4,4,4-trifluorobutyrohydrazide]: in data set [1] (setting [2]), the mortality at 0.0064 mg/m2 was 3.3%.
